We go through 14 molecules from ChEMBL document CHEMBL1153906 (Bioorg Med Chem, 2009).

Molecules are shown by their SMILES.

A short description of assay [1]: Selectivity ratio of Ki for human carbonic anhydrase 2 to Ki for Caenorhabditis elegans carbonic anhydrase 4b.
Assay [2] is described as follows: Inhibition of Caenorhabditis elegans carbonic anhydrase 4b by CO2 hydration assay.

Broadly, the Ki is the dissociation constant of the complex between target and ligand, obtained from inhibition or displacement. For `NNC(=O)c1[nH]c2ccc(S(N)(=O)=O)cc2c1-c1ccccc1Cl`, in assay [1], the Ratio Ki is 0.1. In addition, the affinity in assay [2] corresponds to a Ki of 372 nM.
As for `NNC(=O)c1[nH]c2ccc(S(N)(=O)=O)cc2c1-c1ccccc1F`, in assay [1], the Ratio Ki is 2.88. In addition, the affinity in assay [2] corresponds to a Ki of 12.5 nM.
Taken in the same sequence, the figures for `NNC(=O)c1[nH]c2ccc(S(N)(=O)=O)cc2c1-c1cccc(F)c1` were 0.86 and 9.9 nM.
In the case of `NNC(=O)c1[nH]c2ccc(S(N)(=O)=O)cc2c1-c1cccc(Br)c1`, in assay [1], the Ratio Ki was determined as 4.03. In assay [2], this molecule returned a Ki of 13.4 nM.
On to `Cc1cccc(-c2c(C(=O)NN)[nH]c3ccc(S(N)(=O)=O)cc23)c1`, for which, in assay [1], the Ratio Ki amounted to 3.63. Besides, the Ki in assay [2] is 13.3 nM.
Take `NNC(=O)c1[nH]c2ccc(S(N)(=O)=O)cc2c1-c1ccc(Cl)cc1`: in assay [1], the Ratio Ki was 1.78. In assay [2], this molecule came in with a Ki of 6.5 nM.
Turning to `Cc1ccc(-c2c(C(=O)NN)[nH]c3ccc(S(N)(=O)=O)cc23)cc1`, in assay [1], the Ratio Ki is 4.95. The molecule also had an inhibition constant Ki in assay [2] of 12.2 nM.
In the case of `NNC(=O)c1[nH]c2ccc(S(N)(=O)=O)cc2c1-c1ccc(Br)cc1`, in assay [1], the Ratio Ki came to 3.54. The molecule also showed a Ki in assay [2] of 11.5 nM.
Taken in the same sequence, the figures for `NNC(=O)c1[nH]c2ccc(S(N)(=O)=O)cc2c1-c1ccccc1Br` were 0.18 and 260 nM.
On to `Cc1ccccc1-c1c(C(=O)NN)[nH]c2ccc(S(N)(=O)=O)cc12`, for which the Ratio Ki in assay [1] turned out to be 0.03. Affinity in assay [2] was put at a Ki of 326 nM.
The corresponding values for `COc1cccc(-c2c(C(=O)NN)[nH]c3ccc(S(N)(=O)=O)cc23)c1` are 0.02 and 330 nM.
The corresponding values for `NNC(=O)c1[nH]c2ccc(S(N)(=O)=O)cc2c1-c1ccc(F)cc1` are 2.58 and 6 nM.
As for `NNC(=O)c1[nH]c2ccc(S(N)(=O)=O)cc2c1-c1c(F)c(F)c(F)c(F)c1F`, in assay [1], the Ratio Ki was 0.02. Affinity in assay [2] was put at a Ki of 260 nM.
As to `NNC(=O)c1[nH]c2ccc(S(N)(=O)=O)cc2c1-c1cccc(Cl)c1`, the Ratio Ki in assay [1] is 0.91. The same molecule registered a Ki in assay [2] of 10.1 nM.
